# Calls of active or inactive are those of the source. The rule behind the calls is not given here.
# How the values were obtained:
# [1] = target: T1, Tyrosine-protein kinase JAK3 (Homo sapiens) (UniProt P52333); test: Inhibition of JAK3 in human PBMC at 1 uM
# T1 sequence (whole entry): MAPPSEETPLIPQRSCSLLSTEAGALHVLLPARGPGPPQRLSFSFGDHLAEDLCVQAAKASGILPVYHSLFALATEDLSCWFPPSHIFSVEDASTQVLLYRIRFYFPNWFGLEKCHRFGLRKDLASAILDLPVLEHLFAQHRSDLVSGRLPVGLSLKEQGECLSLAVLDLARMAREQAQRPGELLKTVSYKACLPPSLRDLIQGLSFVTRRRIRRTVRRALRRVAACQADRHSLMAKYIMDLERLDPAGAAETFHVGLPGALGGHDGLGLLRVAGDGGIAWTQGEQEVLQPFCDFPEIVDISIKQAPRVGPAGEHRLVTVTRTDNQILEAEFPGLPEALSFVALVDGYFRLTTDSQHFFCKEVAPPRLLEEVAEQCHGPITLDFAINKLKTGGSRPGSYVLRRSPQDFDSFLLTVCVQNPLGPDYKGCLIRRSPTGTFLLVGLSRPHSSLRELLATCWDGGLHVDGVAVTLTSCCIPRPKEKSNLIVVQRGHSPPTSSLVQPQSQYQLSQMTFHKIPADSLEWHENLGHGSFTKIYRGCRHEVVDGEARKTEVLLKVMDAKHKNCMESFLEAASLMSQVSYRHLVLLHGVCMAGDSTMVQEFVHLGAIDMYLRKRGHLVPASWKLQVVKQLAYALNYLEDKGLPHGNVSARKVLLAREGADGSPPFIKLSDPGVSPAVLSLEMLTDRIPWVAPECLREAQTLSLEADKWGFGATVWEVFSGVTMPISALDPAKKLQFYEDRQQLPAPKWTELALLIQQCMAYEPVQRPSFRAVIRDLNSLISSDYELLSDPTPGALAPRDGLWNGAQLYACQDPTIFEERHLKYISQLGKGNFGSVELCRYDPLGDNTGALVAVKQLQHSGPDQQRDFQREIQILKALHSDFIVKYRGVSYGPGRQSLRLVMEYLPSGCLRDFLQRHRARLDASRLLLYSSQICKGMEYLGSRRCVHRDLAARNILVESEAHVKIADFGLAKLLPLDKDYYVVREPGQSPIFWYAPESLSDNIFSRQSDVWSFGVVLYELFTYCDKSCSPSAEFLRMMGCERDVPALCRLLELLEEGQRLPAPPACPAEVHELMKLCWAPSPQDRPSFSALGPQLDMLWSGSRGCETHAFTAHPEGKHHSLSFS
# [2] = target: T2, Serine/threonine-protein kinase D2 (Homo sapiens) (UniProt Q9BZL6); test: Inhibition of PKD2 in human PBMC at 1 uM
# T2 sequence (whole entry): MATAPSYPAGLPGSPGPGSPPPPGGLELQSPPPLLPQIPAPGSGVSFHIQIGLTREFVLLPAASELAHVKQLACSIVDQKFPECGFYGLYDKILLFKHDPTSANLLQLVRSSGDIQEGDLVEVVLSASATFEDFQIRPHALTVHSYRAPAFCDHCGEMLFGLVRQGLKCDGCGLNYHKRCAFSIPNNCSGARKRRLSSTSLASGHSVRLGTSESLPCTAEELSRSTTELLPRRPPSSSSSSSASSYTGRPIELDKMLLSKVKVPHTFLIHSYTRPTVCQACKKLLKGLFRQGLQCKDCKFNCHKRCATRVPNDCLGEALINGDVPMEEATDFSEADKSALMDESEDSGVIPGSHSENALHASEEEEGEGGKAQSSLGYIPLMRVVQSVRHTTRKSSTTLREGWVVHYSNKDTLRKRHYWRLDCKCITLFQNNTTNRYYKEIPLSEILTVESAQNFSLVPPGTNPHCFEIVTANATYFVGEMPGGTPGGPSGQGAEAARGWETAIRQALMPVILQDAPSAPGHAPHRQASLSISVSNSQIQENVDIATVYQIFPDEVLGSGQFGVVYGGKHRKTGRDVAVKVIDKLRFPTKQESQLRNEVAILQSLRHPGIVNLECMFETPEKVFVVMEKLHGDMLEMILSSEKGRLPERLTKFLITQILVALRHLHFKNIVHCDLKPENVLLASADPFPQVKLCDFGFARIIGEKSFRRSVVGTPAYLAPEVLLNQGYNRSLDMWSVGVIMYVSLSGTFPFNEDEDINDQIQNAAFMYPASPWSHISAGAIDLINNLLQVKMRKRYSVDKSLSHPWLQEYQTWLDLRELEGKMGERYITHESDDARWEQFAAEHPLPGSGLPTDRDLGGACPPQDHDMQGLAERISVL
# [3] = target: T3, Adenosine receptor A1 (Homo sapiens) (UniProt P30542); test: Antagonist activity at recombinant human adenosine A1 receptor expressed in mouse BA/F3 cells assessed as inhibition of CPA-induced calcium flux up to 10 uM by spectrophotometric analysis; format: functional, cell-based
# T3 sequence (whole entry): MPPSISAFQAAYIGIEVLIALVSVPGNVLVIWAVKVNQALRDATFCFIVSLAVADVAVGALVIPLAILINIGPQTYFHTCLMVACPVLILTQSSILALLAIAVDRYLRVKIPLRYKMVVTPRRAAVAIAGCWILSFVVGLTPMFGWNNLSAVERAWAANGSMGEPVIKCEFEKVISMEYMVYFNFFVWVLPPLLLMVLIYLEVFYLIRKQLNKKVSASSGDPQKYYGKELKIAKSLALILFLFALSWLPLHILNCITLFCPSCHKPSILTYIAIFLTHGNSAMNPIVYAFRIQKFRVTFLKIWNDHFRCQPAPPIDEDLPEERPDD
# [4] = target: Non-receptor tyrosine-protein kinase TYK2 (Homo sapiens) (UniProt P29597); test: Inhibition of recombinant human TYK2 JH1 catalytic domain (887 to 1187 residues) expressed in mammalian expression system at 1 uM by KINOMEScan assay relative to control
# Chain of Non-receptor tyrosine-protein kinase TYK2 (Homo sapiens) (P29597 whole entry, the tested form may be a part): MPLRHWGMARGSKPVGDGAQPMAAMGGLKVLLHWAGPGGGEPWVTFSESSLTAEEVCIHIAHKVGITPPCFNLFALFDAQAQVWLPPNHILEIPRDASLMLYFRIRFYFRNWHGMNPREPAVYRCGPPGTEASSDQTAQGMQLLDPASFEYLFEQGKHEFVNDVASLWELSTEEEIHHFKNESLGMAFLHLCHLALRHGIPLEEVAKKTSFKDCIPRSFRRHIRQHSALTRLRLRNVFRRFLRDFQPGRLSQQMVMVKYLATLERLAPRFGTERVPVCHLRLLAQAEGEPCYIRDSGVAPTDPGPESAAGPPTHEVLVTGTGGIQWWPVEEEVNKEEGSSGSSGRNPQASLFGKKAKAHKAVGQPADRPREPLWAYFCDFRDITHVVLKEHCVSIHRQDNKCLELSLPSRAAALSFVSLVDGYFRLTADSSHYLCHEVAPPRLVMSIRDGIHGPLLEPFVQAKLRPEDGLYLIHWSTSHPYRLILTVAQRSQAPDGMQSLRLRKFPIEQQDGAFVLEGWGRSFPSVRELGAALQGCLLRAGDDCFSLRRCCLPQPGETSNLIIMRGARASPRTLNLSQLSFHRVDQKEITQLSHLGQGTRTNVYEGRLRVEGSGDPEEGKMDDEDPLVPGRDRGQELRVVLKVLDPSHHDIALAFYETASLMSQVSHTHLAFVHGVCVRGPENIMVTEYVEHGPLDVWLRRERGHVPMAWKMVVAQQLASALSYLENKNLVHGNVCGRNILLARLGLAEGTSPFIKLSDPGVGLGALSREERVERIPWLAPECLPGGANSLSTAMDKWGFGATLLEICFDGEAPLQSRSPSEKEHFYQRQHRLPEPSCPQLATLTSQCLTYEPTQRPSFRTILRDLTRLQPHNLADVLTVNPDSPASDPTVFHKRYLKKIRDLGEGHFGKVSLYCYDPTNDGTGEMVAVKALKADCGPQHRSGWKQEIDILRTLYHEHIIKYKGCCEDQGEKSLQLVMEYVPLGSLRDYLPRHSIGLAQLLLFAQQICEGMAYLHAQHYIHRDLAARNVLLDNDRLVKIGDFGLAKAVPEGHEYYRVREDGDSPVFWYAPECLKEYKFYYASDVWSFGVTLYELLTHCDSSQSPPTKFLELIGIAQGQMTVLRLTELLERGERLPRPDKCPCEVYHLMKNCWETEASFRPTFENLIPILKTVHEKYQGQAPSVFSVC
smiles,measurement,setting,value
Cc1cccc(-c2cc(N)nc3[nH]cc(C#N)c23)c1,inhibition,[1],> 60%
same,inhibition,[2],> 35%
same,inhibition,[3],inactive
same,inhibition,[4],> 95%

# Source: ChEMBL document CHEMBL4028875, “Design of Leucine-Rich Repeat Kinase 2 (LRRK2) Inhibitors Using a Crystallographic Surrogate Derived from Checkpoint Kinase 1 (CHK1)” (J Med Chem, 2017)
